TGI data for 20 compounds are collected here from PubChem BioAssay (NCI).

Some test systems named below: CAKI-1 renal; MOLT-4 leukemia; NCI-H460 lung; OVCAR-3 ovarian; PC-3 prostate; SF-539 CNS.
Assay in all cases: NCI anticancer screen, dose series, 48 h

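All cell lines were grown in 96-well plates and treated with compound for 48 hours. TGI is the concentration that stops growth completely.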

As for `COC(=O)/C=C/N1CC1`, the TGI in the test on CAKI-1 renal, in the test on MOLT-4 leukemia, in the test with NCI-H460 lung, in the test with OVCAR-3 ovarian, with PC-3 prostate and in the test on SF-539 CNS was more than 10 µM each time.

In the case of `CC(=O)Nc1ccc2c3c(cc(O)c2c1)N(C(=O)CCCCCC(=O)Nc1ccc2c4c(cc(O)c2c1)N(C(=O)OC(C)(C)C)CC4CCl)CC3CCl` (stereo unspecified), the TGI in the test on CAKI-1 renal is more than 100 µM; with MOLT-4 leukemia, more than 32.6 µM; in the test with NCI-H460 lung, more than 21.2 µM; in the test on OVCAR-3 ovarian, 4.54 µM; with PC-3 prostate, more than 50.2 µM; with SF-539 CNS, 13.1 µM.

`Cc1ccc(S(=O)(=O)N/N=C2\CC3C4CCC3C2C4)cc1` (stereo unspecified): the TGI with CAKI-1 renal, in the test on MOLT-4 leukemia, in the test with NCI-H460 lung, with OVCAR-3 ovarian, in the test with PC-3 prostate and in the test on SF-539 CNS was more than 100 µM each time.

In the case of `NC1=CN(Cc2ccccc2)C2=N/C(=C\c3ccco3)C(=O)N12`, the TGI with CAKI-1 renal, in the test on MOLT-4 leukemia, in the test with NCI-H460 lung, in the test on OVCAR-3 ovarian, in the test with PC-3 prostate and with SF-539 CNS was more than 100 µM in each case.

Regarding `COC(=O)c1c(OC(C)=O)ccc2c1c1cc3ccccc3c(OC(C)=O)c1n2C`, the TGI is 70.3 µM with CAKI-1 renal; more than 100 µM in the test with MOLT-4 leukemia; more than 100 µM in the test on NCI-H460 lung; 62 µM with OVCAR-3 ovarian; more than 100 µM in the test with PC-3 prostate; 91.1 µM in the test with SF-539 CNS.

Regarding `CC(C)C(=O)CP(=O)(O)O`, the TGI in the test with CAKI-1 renal, in the test on MOLT-4 leukemia, in the test on NCI-H460 lung, in the test on OVCAR-3 ovarian, in the test on PC-3 prostate and in the test on SF-539 CNS was more than 100 µM each time.

As for `CC(C)[Si](OC1=CCC[C@H]2NC(=O)[C@@H](Cc3ccc([N+](=O)[O-])cc3)[C@@]12C)(C(C)C)C(C)C`, the TGI is 26.2 µM in the test on CAKI-1 renal; more than 100 µM with MOLT-4 leukemia; 10.5 µM in the test on NCI-H460 lung; 11.7 µM in the test on OVCAR-3 ovarian; 12 µM in the test on PC-3 prostate; 5.41 µM with SF-539 CNS.

As for `O=c1c2cc([N+](=O)[O-])cnc2sn1-c1ccc(Br)cc1`, the TGI was 90.3 µM with MOLT-4 leukemia; more than 100 µM with NCI-H460 lung; more than 100 µM in the test on OVCAR-3 ovarian; more than 100 µM in the test with PC-3 prostate; more than 100 µM with SF-539 CNS.

With `CCOC(=O)/C=C1\C[C@H](NC(=O)OCc2ccccc2)C(=O)N1CC(=O)OCC`, the TGI with CAKI-1 renal, in the test with MOLT-4 leukemia, with NCI-H460 lung, with OVCAR-3 ovarian, with PC-3 prostate and with SF-539 CNS was more than 100 µM throughout.

Regarding `Cc1cccc2c(=O)c3c(O)cc4c(c3n(C)c12)C=CC(C)(C)O4`, the TGI with CAKI-1 renal, in the test with MOLT-4 leukemia, with NCI-H460 lung, with OVCAR-3 ovarian, in the test on PC-3 prostate and in the test on SF-539 CNS was more than 100 µM in each case.

Take `CN1C(=O)C(O)C[C@@H]1c1ccc(F)cc1` (stereo partly specified): the TGI in the test with CAKI-1 renal, in the test on MOLT-4 leukemia, in the test on OVCAR-3 ovarian, in the test with PC-3 prostate and in the test on SF-539 CNS was more than 100 µM each time.

On to `CCOC(=O)c1c(CN2CCOCC2)n(Cc2ccccc2)c2c1cc(O)c1nc(C)c(C)nc12`, for which the TGI is 64.9 µM in the test on CAKI-1 renal; more than 100 µM in the test on MOLT-4 leukemia; more than 100 µM in the test with NCI-H460 lung; more than 100 µM in the test on OVCAR-3 ovarian; 92.4 µM with PC-3 prostate; 87 µM with SF-539 CNS.

As for `CC(C)(C)OC(=O)CC(NC(=O)OC(C)(C)C)C(=O)Oc1ccc([N+](=O)[O-])cc1` (stereo unspecified), the TGI with CAKI-1 renal, in the test on MOLT-4 leukemia, with NCI-H460 lung, in the test with OVCAR-3 ovarian, with PC-3 prostate and in the test on SF-539 CNS was more than 100 µM throughout.

Take `Cc1ccc2nnc(NS(=O)(=O)c3cc(C)c(Cl)cc3S)n2n1`: the TGI in the test with CAKI-1 renal, in the test on MOLT-4 leukemia, with NCI-H460 lung, in the test with OVCAR-3 ovarian, with PC-3 prostate and in the test on SF-539 CNS was more than 100 µM each time.

Consider `COc1ccc(/C=C2\CC3C4CC=C5C[C@@H](O)CC[C@]5(C)C4CC[C@]3(C)C2=O)cc1OC` (stereo partly specified), for which the TGI in the test with CAKI-1 renal is more than 100 µM; in the test on MOLT-4 leukemia it was 83.4 µM; with NCI-H460 lung, more than 100 µM; with OVCAR-3 ovarian it was 51.9 µM; in the test with PC-3 prostate, more than 100 µM; with SF-539 CNS, more than 100 µM.

Take `CCOC(=O)c1c[nH]c2cc3c(cc2c1=O)CCS3`: the TGI with CAKI-1 renal, in the test with MOLT-4 leukemia, in the test with NCI-H460 lung, in the test on OVCAR-3 ovarian, in the test with PC-3 prostate and with SF-539 CNS was more than 100 µM each time.

`N#C/C=C\c1ccc(-c2cc(C(F)(F)F)cc(C(F)(F)F)c2)o1`: the TGI is more than 100 µM with CAKI-1 renal; more than 100 µM with MOLT-4 leukemia; more than 100 µM with NCI-H460 lung; more than 100 µM in the test on OVCAR-3 ovarian; more than 100 µM in the test on PC-3 prostate; 26.6 µM in the test with SF-539 CNS.

On to `O[C@H]1[C@@H]2OC[C@@H](O)[C@H](OCc3ccccc3)[C@@](COCc3ccccc3)(O2)[C@@H]1OCc1ccccc1`, for which the TGI with CAKI-1 renal was 0.0898 µM; in the test on MOLT-4 leukemia, more than 100 µM; in the test on NCI-H460 lung, 53.8 µM; in the test with OVCAR-3 ovarian it was 19.4 µM; in the test on PC-3 prostate, 28.3 µM; with SF-539 CNS, 31 µM.

`Cc1cn(C2CC(O)C(Cn3nncc3Cn3ccc(=O)[nH]c3=O)O2)c(=O)[nH]c1=O` (stereo unspecified): the TGI in the test on CAKI-1 renal, in the test with MOLT-4 leukemia, in the test with OVCAR-3 ovarian, in the test on PC-3 prostate and with SF-539 CNS was more than 100 µM each time.

Consider `C[C@]12CC[C@H]3[C@@H](CCC4=CC(=O)CC[C@@]43C)[C@@H]1CC[C@@H]2OC(=O)c1cccc2c(=O)c3ccccc3[nH]c12`, for which the TGI with MOLT-4 leukemia is 89.2 µM; in the test with NCI-H460 lung it was more than 100 µM; in the test on OVCAR-3 ovarian it was more than 100 µM; with PC-3 prostate, more than 100 µM; in the test on SF-539 CNS, more than 100 µM.
